Results: patent US12281080B2, “Quinoline-based compounds and methods of inhibiting CDK8/19” (University of South Carolina, priority 2018, dated 2025)

Assays:
MST1R = MST1R (Homo sapiens (Human), UniProt Q04912); test: KINOMEscan scanMAX; format: binding; settings: 2000 nM; read-out: Percent Control
ITK = ITK (Homo sapiens (Human), UniProt Q08881); test: KINOMEscan scanMAX; format: binding; settings: 2000 nM; read-out: Percent Control
MEK4 (MAP2K4) = MEK4 (MAP2K4) (Homo sapiens (Human), UniProt P45985); test: KINOMEscan scanMAX; format: binding; settings: 2000 nM; read-out: Percent Control
[1] = biological target: ABL1(Q252H)-nonphosphorylated (Homo sapiens (Human), UniProt P00519, Q252H); test: KINOMEscan scanMAX; format: binding; settings: 2000 nM; read-out: Percent Control
TYRO3 = TYRO3 (Homo sapiens (Human), UniProt Q06418); test: KINOMEscan scanMAX; format: binding; settings: 2000 nM; read-out: Percent Control
TRKC (NTRK3) = TRKC (NTRK3) (Homo sapiens (Human), UniProt Q16288); test: KINOMEscan scanMAX; format: binding; settings: 2000 nM; read-out: Percent Control
KIT(D816V) = KIT(D816V) (Homo sapiens (Human), UniProt P10721, D816V); test: KINOMEscan scanMAX; format: binding; settings: 2000 nM; read-out: Percent Control
SNARK (NUAK2) = SNARK (NUAK2) (Homo sapiens (Human), UniProt Q9H093); test: KINOMEscan scanMAX; format: binding; settings: 2000 nM; read-out: Percent Control
CSNK1A1L = CSNK1A1L (Homo sapiens (Human), UniProt Q8N752); test: KINOMEscan scanMAX; format: binding; settings: 2000 nM; read-out: Percent Control
ERBB3 = ERBB3 (Homo sapiens (Human), UniProt P21860); test: KINOMEscan scanMAX; format: binding; settings: 2000 nM; read-out: Percent Control
PIK3CA(Q546K) = PIK3CA(Q546K) (Homo sapiens (Human), UniProt P42336, Q546K); test: KINOMEscan scanMAX; format: binding; settings: 2000 nM; read-out: Percent Control
MYO3B = MYO3B (Homo sapiens (Human), UniProt Q8WXR4); test: DiscoverX Kd assay; settings: average from duplicate measurements
TRKA (NTRK1) = TRKA (NTRK1) (Homo sapiens (Human), UniProt P04629); test: KINOMEscan scanMAX; format: binding; settings: 2000 nM; read-out: Percent Control
TLK1 = TLK1 (Homo sapiens (Human), UniProt Q9UKI8); test: KINOMEscan scanMAX; format: binding; settings: 2000 nM; read-out: Percent Control
FLT3(R834Q) = FLT3(R834Q) (Homo sapiens (Human), UniProt P36888, R834Q); test: KINOMEscan scanMAX; format: binding; settings: 2000 nM; read-out: Percent Control
PIP5K2C (PIP4K2C) = PIP5K2C (PIP4K2C) (Homo sapiens (Human), UniProt Q8TBX8); test: KINOMEscan scanMAX; format: binding; settings: 2000 nM; read-out: Percent Control
[2] = biological target: RSK3(Kin.Dom.2-C-terminal) (RPS6KA2) (Homo sapiens (Human), UniProt Q15349); test: KINOMEscan scanMAX; format: binding; settings: 2000 nM; read-out: Percent Control
EPHA8 = EPHA8 (Homo sapiens (Human), UniProt P29322); test: KINOMEscan scanMAX; format: binding; settings: 2000 nM; read-out: Percent Control
FER = FER (Homo sapiens (Human), UniProt P16591); test: KINOMEscan scanMAX; format: binding; settings: 2000 nM; read-out: Percent Control
FLT3(N841I) = FLT3(N841I) (Homo sapiens (Human), UniProt P36888, N841I); test: KINOMEscan scanMAX; format: binding; settings: 2000 nM; read-out: Percent Control
CDKL3 = CDKL3 (Homo sapiens (Human), UniProt Q8IVW4); test: KINOMEscan scanMAX; format: binding; settings: 2000 nM; read-out: Percent Control
FGFR1 = FGFR1 (Homo sapiens (Human), UniProt P11362); test: KINOMEscan scanMAX; format: binding; settings: 2000 nM; read-out: Percent Control
NEK7 = NEK7 (Homo sapiens (Human), UniProt Q8TDX7); test: KINOMEscan scanMAX; format: binding; settings: 2000 nM; read-out: Percent Control
TIE1 = TIE1 (Homo sapiens (Human), UniProt P35590); test: KINOMEscan scanMAX; format: binding; settings: 2000 nM; read-out: Percent Control
CSF1R-autoinhibited = CSF1R-autoinhibited (Homo sapiens (Human), UniProt P07333); test: KINOMEscan scanMAX; format: binding; settings: 2000 nM; read-out: Percent Control
Sequence of CSF1R-autoinhibited (P07333 539-972 limits assumed): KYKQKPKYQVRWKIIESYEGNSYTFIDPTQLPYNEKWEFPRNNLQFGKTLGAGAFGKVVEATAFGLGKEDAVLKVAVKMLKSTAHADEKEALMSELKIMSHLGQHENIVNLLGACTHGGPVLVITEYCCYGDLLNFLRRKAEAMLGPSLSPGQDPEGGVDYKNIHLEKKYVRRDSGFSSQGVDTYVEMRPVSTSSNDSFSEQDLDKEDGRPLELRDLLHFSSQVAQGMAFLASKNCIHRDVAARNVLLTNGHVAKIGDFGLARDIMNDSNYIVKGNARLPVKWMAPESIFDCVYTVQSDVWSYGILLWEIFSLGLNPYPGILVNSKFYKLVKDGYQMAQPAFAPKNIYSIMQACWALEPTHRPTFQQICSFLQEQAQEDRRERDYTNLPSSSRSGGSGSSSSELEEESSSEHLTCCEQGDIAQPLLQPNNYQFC

CSNK2A2 = CSNK2A2 (Homo sapiens (Human), UniProt P19784); test: KINOMEscan scanMAX; format: binding; settings: 2000 nM; read-out: Percent Control
Sequence of CSNK2A2 (P19784 whole entry): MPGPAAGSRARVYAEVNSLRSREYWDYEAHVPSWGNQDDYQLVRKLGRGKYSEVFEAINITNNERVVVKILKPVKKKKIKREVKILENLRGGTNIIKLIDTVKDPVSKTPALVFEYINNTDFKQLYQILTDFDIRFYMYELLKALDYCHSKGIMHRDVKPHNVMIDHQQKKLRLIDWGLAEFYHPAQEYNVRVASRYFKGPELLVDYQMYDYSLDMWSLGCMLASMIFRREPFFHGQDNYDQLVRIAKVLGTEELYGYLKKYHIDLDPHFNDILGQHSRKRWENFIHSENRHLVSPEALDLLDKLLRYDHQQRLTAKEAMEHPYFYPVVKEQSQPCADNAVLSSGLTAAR

TESK1 = TESK1 (Homo sapiens (Human), UniProt Q15569); test: KINOMEscan scanMAX; format: binding; settings: 2000 nM; read-out: Percent Control
PIP5K1C = PIP5K1C (Homo sapiens (Human), UniProt O60331); test: KINOMEscan scanMAX; format: binding; settings: 2000 nM; read-out: Percent Control
AURKB = AURKB (Homo sapiens (Human), UniProt Q96GD4); test: KINOMEscan scanMAX; format: binding; settings: 2000 nM; read-out: Percent Control
Sequence of AURKB (Q96GD4 whole entry): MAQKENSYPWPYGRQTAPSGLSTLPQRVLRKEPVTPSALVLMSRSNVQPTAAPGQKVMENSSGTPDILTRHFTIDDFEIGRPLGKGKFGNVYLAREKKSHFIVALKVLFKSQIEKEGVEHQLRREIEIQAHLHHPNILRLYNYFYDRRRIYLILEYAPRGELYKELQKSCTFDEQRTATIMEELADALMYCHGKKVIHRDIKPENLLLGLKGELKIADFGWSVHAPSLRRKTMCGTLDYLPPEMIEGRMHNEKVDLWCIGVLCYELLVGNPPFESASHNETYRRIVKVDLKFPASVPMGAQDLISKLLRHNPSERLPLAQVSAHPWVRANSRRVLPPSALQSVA

AMPK-alpha1 (PRKAA1) = AMPK-alpha1 (PRKAA1) (Homo sapiens (Human), UniProt Q13131); test: KINOMEscan scanMAX; format: binding; settings: 2000 nM; read-out: Percent Control
TBK1 = TBK1 (Homo sapiens (Human), UniProt Q9UHD2); test: KINOMEscan scanMAX; format: binding; settings: 2000 nM; read-out: Percent Control
DAPK1 = DAPK1 (Homo sapiens (Human), UniProt P53355); test: KINOMEscan scanMAX; format: binding; settings: 2000 nM; read-out: Percent Control
Sequence of DAPK1 (P53355 whole entry): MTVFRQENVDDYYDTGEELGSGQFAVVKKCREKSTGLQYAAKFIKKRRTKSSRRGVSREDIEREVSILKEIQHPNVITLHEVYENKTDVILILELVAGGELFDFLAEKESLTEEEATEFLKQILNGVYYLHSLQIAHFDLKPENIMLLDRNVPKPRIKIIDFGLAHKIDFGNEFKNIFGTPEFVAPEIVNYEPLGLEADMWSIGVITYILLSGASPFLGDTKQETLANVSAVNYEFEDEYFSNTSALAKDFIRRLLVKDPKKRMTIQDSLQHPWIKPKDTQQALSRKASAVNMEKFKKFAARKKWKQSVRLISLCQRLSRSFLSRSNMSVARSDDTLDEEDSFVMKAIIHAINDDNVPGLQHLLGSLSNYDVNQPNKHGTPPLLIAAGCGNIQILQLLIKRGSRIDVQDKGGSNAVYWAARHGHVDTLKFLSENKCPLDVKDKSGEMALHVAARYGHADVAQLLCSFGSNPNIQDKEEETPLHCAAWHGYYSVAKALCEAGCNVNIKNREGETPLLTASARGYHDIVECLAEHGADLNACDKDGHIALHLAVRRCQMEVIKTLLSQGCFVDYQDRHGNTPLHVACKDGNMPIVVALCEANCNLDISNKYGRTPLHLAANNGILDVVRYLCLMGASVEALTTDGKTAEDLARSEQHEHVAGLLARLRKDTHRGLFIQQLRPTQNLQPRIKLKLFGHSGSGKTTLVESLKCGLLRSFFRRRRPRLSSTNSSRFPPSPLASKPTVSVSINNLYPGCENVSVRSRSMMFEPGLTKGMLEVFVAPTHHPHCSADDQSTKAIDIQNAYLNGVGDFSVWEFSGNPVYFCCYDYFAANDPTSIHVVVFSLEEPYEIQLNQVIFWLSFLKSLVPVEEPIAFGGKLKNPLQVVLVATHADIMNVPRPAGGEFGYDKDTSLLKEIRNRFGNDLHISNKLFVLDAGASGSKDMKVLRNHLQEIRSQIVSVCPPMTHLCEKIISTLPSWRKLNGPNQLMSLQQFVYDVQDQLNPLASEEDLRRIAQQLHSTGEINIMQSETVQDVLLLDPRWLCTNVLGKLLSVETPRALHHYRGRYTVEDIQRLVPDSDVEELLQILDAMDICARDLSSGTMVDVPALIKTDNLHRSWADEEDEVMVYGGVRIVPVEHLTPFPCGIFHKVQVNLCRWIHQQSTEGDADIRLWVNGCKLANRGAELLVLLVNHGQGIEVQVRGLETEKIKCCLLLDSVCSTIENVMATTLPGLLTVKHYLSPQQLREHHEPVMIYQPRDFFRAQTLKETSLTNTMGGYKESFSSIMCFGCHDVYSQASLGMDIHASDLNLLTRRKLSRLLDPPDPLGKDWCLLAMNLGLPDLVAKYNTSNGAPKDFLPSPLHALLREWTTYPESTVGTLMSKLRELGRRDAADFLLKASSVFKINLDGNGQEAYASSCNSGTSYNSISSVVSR

EGFR(L858R, T790M) = EGFR(L858R, T790M) (Homo sapiens (Human), UniProt P00533, L858R/T790M); test: KINOMEscan scanMAX; format: binding; settings: 2000 nM; read-out: Percent Control
[3] = biological target: RPS6KA4(Kin.Dom.2-C-terminal) (Homo sapiens (Human), UniProt O75676); test: KINOMEscan scanMAX; format: binding; settings: 2000 nM; read-out: Percent Control
CSK = CSK (Homo sapiens (Human), UniProt P41240); test: KINOMEscan scanMAX; format: binding; settings: 2000 nM; read-out: Percent Control
HASPIN (GSG2) = HASPIN (GSG2) (Homo sapiens (Human), UniProt Q8TF76); test: KINOMEscan scanMAX; format: binding; settings: 2000 nM; read-out: Percent Control
Sequence of HASPIN (GSG2) (Q8TF76 whole entry): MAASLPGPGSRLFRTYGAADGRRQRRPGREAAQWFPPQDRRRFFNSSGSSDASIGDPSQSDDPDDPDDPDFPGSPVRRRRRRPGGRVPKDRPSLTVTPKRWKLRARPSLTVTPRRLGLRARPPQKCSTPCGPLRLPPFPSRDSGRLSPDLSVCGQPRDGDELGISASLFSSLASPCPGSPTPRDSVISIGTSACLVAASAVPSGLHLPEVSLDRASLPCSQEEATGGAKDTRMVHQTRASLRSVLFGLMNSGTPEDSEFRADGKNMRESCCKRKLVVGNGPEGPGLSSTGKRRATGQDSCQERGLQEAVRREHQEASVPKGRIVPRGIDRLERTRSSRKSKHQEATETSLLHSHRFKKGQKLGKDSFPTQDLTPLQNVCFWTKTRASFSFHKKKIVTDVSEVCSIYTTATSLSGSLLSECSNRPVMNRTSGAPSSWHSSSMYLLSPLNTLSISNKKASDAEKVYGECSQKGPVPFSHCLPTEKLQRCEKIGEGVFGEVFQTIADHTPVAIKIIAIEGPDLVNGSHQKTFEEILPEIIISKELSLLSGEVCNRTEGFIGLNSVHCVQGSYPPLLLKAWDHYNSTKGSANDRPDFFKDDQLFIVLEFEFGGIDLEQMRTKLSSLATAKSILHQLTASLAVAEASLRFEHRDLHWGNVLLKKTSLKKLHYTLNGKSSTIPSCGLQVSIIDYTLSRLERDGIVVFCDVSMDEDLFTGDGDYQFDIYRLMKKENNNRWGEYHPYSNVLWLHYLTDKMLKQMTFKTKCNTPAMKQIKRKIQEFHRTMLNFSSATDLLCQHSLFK

TGFBR2 = TGFBR2 (Homo sapiens (Human), UniProt P37173); test: KINOMEscan scanMAX; format: binding; settings: 2000 nM; read-out: Percent Control
BRSK2 = BRSK2 (Homo sapiens (Human), UniProt Q8IWQ3); test: KINOMEscan scanMAX; format: binding; settings: 2000 nM; read-out: Percent Control
Sequence of BRSK2 (Q8IWQ3 whole entry): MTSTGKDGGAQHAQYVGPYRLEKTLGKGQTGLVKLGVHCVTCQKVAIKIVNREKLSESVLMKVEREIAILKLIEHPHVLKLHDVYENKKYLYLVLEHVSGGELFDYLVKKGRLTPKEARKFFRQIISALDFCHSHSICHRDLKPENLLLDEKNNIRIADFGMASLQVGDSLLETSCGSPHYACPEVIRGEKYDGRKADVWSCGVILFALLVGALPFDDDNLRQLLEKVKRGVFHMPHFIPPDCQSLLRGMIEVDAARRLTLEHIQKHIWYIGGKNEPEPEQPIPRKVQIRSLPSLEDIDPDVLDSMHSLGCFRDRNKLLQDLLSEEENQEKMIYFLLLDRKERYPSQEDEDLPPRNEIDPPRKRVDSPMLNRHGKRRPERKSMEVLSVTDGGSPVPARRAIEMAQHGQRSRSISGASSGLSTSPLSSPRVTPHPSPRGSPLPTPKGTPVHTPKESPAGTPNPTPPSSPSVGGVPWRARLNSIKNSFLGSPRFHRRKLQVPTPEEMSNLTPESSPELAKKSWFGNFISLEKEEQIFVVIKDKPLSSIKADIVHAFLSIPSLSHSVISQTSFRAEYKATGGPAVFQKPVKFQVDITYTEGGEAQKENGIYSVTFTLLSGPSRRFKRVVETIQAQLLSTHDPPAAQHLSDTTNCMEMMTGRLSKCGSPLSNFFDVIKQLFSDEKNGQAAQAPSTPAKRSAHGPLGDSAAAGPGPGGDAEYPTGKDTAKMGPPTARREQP

ERN1 = ERN1 (Homo sapiens (Human), UniProt O75460); test: KINOMEscan scanMAX; format: binding; settings: 2000 nM; read-out: Percent Control
Sequence of ERN1 (O75460 19-977): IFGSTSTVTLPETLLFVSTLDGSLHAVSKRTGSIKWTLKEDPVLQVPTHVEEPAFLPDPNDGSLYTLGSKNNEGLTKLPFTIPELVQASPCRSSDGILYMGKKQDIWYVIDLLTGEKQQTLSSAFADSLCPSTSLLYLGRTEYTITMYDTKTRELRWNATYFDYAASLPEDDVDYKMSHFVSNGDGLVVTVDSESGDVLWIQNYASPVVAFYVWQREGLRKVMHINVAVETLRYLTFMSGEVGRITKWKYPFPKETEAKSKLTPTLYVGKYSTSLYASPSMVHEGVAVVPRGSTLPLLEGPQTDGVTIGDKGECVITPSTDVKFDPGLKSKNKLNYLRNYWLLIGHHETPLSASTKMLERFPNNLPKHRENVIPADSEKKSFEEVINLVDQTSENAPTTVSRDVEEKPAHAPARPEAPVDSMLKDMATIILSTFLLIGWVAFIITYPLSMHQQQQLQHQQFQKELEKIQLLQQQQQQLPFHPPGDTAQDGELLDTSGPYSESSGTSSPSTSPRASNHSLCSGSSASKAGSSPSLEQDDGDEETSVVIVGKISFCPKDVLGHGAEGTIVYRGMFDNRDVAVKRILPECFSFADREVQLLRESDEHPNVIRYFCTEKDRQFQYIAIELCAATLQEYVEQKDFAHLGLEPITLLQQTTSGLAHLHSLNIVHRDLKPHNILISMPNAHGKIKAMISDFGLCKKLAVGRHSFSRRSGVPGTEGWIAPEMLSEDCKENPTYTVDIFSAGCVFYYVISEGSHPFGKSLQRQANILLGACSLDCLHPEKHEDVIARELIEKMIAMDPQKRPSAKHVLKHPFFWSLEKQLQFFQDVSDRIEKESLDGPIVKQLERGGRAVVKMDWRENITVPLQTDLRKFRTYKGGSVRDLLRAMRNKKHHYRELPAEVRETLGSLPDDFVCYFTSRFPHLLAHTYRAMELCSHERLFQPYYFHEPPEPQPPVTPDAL

CN1CCN(C(=O)c2ccc3cc(CCNc4ccnc5ccc(C#N)cc45)ccc3c2)CC1 [compound 6148, 4-((2-(6-(4-methylpiperazine-1-carbonyl)naphthalen-2-yl)ethyl)amino)quinoline-6-carbonitrile]
remaining binding at 2 µM (MST1R): 100% | remaining binding at 2 µM (ITK): 93% | remaining binding at 2 µM (MEK4 (MAP2K4)): 58% | remaining binding at 2 µM [1]: 73% | remaining binding at 2 µM (TYRO3): 77% | remaining binding at 2 µM (TRKC (NTRK3)): 69% | remaining binding at 2 µM (KIT(D816V)): 100% | remaining binding at 2 µM (SNARK (NUAK2)): 75% | remaining binding at 2 µM (CSNK1A1L): 88% | remaining binding at 2 µM (ERBB3): 76% | remaining binding at 2 µM (PIK3CA(Q546K)): 70% | Kd (MYO3B): > 30 µM | remaining binding at 2 µM (TRKA (NTRK1)): 53% | remaining binding at 2 µM (TLK1): 94% | remaining binding at 2 µM (FLT3(R834Q)): 70% | remaining binding at 2 µM (PIP5K2C (PIP4K2C)): 84% | remaining binding at 2 µM [2]: 91% | remaining binding at 2 µM (EPHA8): 91% | remaining binding at 2 µM (FER): 91% | remaining binding at 2 µM (FLT3(N841I)): 100% | remaining binding at 2 µM (CDKL3): 87% | remaining binding at 2 µM (FGFR1): 85% | remaining binding at 2 µM (NEK7): 94% | remaining binding at 2 µM (TIE1): 85% | remaining binding at 2 µM (CSF1R-autoinhibited): 91% | remaining binding at 2 µM (CSNK2A2): 64% | remaining binding at 2 µM (TESK1): 96% | remaining binding at 2 µM (PIP5K1C): 87% | remaining binding at 2 µM (AURKB): 75% | remaining binding at 2 µM (AMPK-alpha1 (PRKAA1)): 94% | remaining binding at 2 µM (TBK1): 88% | remaining binding at 2 µM (DAPK1): 100% | remaining binding at 2 µM (EGFR(L858R, T790M)): 82% | remaining binding at 2 µM [3]: 62% | remaining binding at 2 µM (CSK): 85% | remaining binding at 2 µM (HASPIN (GSG2)): 29% | remaining binding at 2 µM (TGFBR2): 96% | remaining binding at 2 µM (BRSK2): 96% | remaining binding at 2 µM (ERN1): 58%
